Key:
[1] = biological target: Serine/threonine-protein kinase LATS1 (Homo sapiens) (UniProt O95835); test: Inhibition of human LATS1 at 100 nM using KKRNRRLSVA as substrate by [gamma-33P]-ATP assay
[2] = biological target: Serine/threonine-protein kinase ULK3 (Homo sapiens) (UniProt Q6PHR2); test: Inhibition of human ULK3 at 100 nM using MBP as substrate by [gamma-33P]-ATP assay
[3] = biological target: Ribosomal protein S6 kinase alpha-1 (Homo sapiens) (UniProt Q15418); test: Inhibition of human RSK1 at 100 nM using KKLNRTLSVA as substrate by [gamma-33P]-ATP assay
[4] = biological target: cGMP-dependent protein kinase 1 (Homo sapiens) (UniProt Q13976); test: Inhibition of human PKG1alpha at 100 nM using LRRASLG as substrate by [gamma-33P]-ATP assay
[5] = biological target: Interleukin-1 receptor-associated kinase 1 (Homo sapiens) (UniProt P51617); test: Inhibition of human IRAK1 at 100 nM using MBP as substrate by [gamma-33P]-ATP assay
[6] = biological target: Dual serine/threonine and tyrosine protein kinase (Homo sapiens) (UniProt Q6XUX3); test: Inhibition of human RIPK5 at 100 nM using MBP as substrate by [gamma-33P]-ATP assay
[7] = biological target: Death-associated protein kinase 2 (Homo sapiens) (UniProt Q9UIK4); test: Inhibition of human DAPK2 at 100 nM using KKLNRTLSFAEPG as substrate by [gamma-33P]-ATP assay
[8] = biological target: CDK2/Cyclin A2 (Homo sapiens) (UniProt P24941+P20248); test: Inhibition of human CDK2/cyclin-A at 100 nM using histone H1 as substrate by [gamma-33P]-ATP assay; type: protein-complex assay
[9] = biological target: Ephrin type-A receptor 7 (Homo sapiens) (UniProt Q15375); test: Inhibition of human EPHA7 at 100 nM using poly[Glu:Tyr] (4:1) as substrate by [gamma-33P]-ATP assay
[10] = biological target: Serine/threonine-protein kinase pim-1 (Homo sapiens) (UniProt P11309); test: Inhibition of human PIM1 at 100 nM using KKRNRTLTK as substrate by [gamma-33P]-ATP assay
[11] = biological target: Serine/threonine-protein kinase WNK3 (Homo sapiens) (UniProt Q9BYP7); test: Inhibition of human WNK3 at 100 nM using MBP as substrate by [gamma-33P]-ATP assay
Homo sapiens [12] = organism: Homo sapiens; test: Inhibition of human AMPK (A2/B2/G3) at 100 nM using HMRSAMSGLHLVKRR as substrate by [gamma-33P]-ATP assay
[13] = biological target: Calcium/calmodulin-dependent protein kinase type II subunit gamma (Homo sapiens) (UniProt Q13555); test: Inhibition of human CAMK2G at 100 nM using KKLNRTLSFAEPG as substrate by [gamma-33P]-ATP assay
[14] = biological target: Mitogen-activated protein kinase kinase kinase kinase 4 (Homo sapiens) (UniProt O95819); test: Inhibition of human HGK at 100 nM using MBP as substrate by [gamma-33P]-ATP assay
[15] = biological target: Protein kinase C beta type (Homo sapiens) (UniProt P05771); test: Inhibition of human PKCb2 at 100 nM using Histone H1 as substrate by [gamma-33P]-ATP assay
[16] = biological target: Dual specificity protein kinase CLK2 (Homo sapiens) (UniProt P49760); test: Inhibition of human CLK2 at 100 nM using MBP as substrate by [gamma-33P]-ATP assay
[17] = biological target: Serine/threonine-protein kinase OSR1 (Homo sapiens) (UniProt O95747); test: Inhibition of human OSR1 at 100 nM using RRHYYYDTHTNTYYLRTFGHNTRR as substrate by [gamma-33P]-ATP assay
[18] = biological target: Tyrosine-protein kinase Fgr (Homo sapiens) (UniProt P09769); test: Inhibition of human FGR at 100 nM using poly[Glu:Tyr] (4:1) as substrate by [gamma-33P]-ATP assay
[19] = biological target: Kinase suppressor of Ras 2 (Homo sapiens) (UniProt Q6VAB6); test: Inhibition of human KSR2 at 100 nM using KRREILSRRPSYR as substrate by [gamma-33P]-ATP assay
HCT-116 = test: Antiproliferative activity against human HCT116 cells assessed as reduction in cell viability incubated for 72 hrs by MTT assay; type: functional, cell-based; conditions: HCT-116, 72 h
[20] = biological target: Serine/threonine-protein kinase pim-3 (Homo sapiens) (UniProt Q86V86); test: Inhibition of human PIM3 at 100 nM using RSRHSSYPAGT as substrate by [gamma-33P]-ATP assay
[21] = biological target: Non-receptor tyrosine-protein kinase TNK1 (Homo sapiens) (UniProt Q13470); test: Inhibition of human TNK1 at 100 nM using poly[Glu:Tyr] (4:1) as substrate by [gamma-33P]-ATP assay
[22] = biological target: Phosphorylase b kinase gamma catalytic chain, skeletal muscle/heart isoform (Homo sapiens) (UniProt Q16816); test: Inhibition of human PHKgamma1 at 100 nM using MBP as substrate by [gamma-33P]-ATP assay
[23] = biological target: Myosin light chain kinase 2, skeletal/cardiac muscle (Homo sapiens) (UniProt Q9H1R3); test: Inhibition of human MLCK2 at 100 nM using KKLNRTLSFAEPG as substrate by [gamma-33P]-ATP assay
[24] = biological target: Tyrosine-protein kinase TXK (Homo sapiens) (UniProt P42681); test: Inhibition of human TXK at 100 nM using EAIYAAPFAKKK as substrate by [gamma-33P]-ATP assay
[25] = biological target: Myosin light chain kinase (Homo sapiens) (UniProt Q32MK0); test: Inhibition of human MYLK3 at 100 nM using KKRPQRRYSNVF as substrate by [gamma-33P]-ATP assay
Homo sapiens [26] = organism: Homo sapiens; test: Inhibition of human AMPK (A1/B2/G1) at 100 nM using HMRSAMSGLHLVKRR as substrate by [gamma-33P]-ATP assay
[27] = biological target: CDK18/Cyclin Y (Homo sapiens) (UniProt Q07002+Q8ND76); test: Inhibition of human CDK18/cyclin-Y at 100 nM using RB protein as substrate by [gamma-33P]-ATP assay; type: protein-complex assay
[28] = biological target: High affinity nerve growth factor receptor (Homo sapiens) (UniProt P04629); test: Inhibition of human TRKA at 100 nM using poly[Glu:Tyr] (4:1) as substrate by [gamma-33P]-ATP assay
HeLa = test: Inhibition of colony formation in human HeLa cells incubated for 2 weeks crystal violet staining based assay; type: functional, cell-based
MCF7 = test: cells; conditions: Homo sapiens, MCF7, 72 h
[29] = biological target: Dual specificity tyrosine-phosphorylation-regulated kinase 1A (Homo sapiens) (UniProt Q13627); test: Inhibition of human DYRK1A at 100 nM using RRRFRPASPLRGPPK as substrate by [gamma-33P]-ATP assay

Sequence of Non-receptor tyrosine-protein kinase TNK1 (Homo sapiens) (Q13470 whole entry, canonical isoform): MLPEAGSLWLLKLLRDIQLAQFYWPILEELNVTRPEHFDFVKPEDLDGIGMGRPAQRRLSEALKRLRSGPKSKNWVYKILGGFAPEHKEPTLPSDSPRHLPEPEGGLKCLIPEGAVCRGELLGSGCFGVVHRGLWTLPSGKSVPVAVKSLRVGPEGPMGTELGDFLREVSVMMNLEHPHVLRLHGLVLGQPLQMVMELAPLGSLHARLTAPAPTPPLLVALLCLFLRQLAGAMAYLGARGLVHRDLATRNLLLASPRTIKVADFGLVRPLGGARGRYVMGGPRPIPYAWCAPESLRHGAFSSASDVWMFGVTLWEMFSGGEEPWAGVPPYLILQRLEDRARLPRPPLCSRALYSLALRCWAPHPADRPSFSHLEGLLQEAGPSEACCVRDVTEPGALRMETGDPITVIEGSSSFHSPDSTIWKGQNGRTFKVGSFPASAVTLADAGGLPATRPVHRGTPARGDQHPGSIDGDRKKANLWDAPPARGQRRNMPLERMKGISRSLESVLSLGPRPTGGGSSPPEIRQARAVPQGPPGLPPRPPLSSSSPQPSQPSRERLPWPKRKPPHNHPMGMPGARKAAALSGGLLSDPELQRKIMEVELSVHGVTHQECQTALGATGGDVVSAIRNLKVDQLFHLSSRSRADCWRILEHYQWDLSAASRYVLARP
Sequence of Tyrosine-protein kinase TXK (Homo sapiens) (P42681 whole entry): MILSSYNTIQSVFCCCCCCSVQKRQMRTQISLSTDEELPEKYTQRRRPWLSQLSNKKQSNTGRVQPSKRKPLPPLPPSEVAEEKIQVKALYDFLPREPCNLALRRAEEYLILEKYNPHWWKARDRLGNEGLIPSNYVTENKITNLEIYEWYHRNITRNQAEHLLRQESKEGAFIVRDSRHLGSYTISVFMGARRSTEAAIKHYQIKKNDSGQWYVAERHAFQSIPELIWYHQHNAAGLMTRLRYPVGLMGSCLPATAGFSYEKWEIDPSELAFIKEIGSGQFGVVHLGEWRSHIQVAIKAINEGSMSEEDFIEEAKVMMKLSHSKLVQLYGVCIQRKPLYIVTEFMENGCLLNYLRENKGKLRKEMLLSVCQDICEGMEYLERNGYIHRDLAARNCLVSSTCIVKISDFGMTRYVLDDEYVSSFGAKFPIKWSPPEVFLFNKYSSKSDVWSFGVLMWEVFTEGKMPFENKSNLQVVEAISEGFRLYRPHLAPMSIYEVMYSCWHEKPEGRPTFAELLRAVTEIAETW
Sequence of Serine/threonine-protein kinase WNK3 (Homo sapiens) (Q9BYP7 whole entry): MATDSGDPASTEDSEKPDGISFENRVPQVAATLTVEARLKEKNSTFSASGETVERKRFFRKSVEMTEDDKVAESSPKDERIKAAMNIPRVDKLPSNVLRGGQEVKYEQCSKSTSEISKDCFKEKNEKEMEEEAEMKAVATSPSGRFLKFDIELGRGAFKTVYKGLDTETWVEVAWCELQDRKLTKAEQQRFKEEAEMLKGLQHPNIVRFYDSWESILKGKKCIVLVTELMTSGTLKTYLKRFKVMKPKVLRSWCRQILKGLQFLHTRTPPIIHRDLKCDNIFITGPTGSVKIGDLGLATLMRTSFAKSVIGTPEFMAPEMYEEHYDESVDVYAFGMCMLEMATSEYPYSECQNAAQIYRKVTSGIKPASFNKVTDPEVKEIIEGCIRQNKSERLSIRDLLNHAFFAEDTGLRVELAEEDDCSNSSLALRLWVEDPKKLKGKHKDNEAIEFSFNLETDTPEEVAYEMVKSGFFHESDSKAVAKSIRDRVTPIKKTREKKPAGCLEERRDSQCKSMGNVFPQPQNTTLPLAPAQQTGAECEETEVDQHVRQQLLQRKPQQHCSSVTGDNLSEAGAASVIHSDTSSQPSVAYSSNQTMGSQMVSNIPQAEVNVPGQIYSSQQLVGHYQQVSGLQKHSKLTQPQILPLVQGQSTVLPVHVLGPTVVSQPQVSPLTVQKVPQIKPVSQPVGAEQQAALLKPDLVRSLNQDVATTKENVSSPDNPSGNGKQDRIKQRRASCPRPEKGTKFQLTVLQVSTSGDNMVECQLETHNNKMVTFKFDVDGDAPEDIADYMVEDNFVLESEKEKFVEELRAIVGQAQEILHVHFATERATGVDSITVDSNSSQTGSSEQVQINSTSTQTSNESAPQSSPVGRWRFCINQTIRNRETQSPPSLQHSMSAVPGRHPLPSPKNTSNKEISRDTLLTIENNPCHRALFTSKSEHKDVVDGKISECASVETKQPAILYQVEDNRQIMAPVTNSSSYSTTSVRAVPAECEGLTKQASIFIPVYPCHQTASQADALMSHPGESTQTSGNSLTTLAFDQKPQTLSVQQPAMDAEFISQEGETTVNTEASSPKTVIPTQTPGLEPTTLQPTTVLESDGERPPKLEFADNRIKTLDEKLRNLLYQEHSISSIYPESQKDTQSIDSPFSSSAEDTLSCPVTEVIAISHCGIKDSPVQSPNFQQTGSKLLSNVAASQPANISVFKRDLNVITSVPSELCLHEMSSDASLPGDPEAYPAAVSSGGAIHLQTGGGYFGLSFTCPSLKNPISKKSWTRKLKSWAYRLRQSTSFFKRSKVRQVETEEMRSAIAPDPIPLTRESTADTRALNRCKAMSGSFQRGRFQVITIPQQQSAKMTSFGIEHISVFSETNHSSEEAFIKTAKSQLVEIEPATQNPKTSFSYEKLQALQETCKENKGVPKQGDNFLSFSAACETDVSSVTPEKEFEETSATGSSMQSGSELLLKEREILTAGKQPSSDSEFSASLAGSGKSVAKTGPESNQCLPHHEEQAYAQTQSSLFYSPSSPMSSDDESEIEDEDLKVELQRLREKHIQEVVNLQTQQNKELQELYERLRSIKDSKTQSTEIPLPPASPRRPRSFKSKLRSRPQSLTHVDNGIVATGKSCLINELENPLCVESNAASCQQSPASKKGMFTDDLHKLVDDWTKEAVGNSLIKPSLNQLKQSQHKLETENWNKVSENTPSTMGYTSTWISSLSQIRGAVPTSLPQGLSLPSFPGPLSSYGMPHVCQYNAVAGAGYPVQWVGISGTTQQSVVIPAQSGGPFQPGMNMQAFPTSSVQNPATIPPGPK
Sequence of Interleukin-1 receptor-associated kinase 1 (Homo sapiens) (P51617 whole entry, looked up): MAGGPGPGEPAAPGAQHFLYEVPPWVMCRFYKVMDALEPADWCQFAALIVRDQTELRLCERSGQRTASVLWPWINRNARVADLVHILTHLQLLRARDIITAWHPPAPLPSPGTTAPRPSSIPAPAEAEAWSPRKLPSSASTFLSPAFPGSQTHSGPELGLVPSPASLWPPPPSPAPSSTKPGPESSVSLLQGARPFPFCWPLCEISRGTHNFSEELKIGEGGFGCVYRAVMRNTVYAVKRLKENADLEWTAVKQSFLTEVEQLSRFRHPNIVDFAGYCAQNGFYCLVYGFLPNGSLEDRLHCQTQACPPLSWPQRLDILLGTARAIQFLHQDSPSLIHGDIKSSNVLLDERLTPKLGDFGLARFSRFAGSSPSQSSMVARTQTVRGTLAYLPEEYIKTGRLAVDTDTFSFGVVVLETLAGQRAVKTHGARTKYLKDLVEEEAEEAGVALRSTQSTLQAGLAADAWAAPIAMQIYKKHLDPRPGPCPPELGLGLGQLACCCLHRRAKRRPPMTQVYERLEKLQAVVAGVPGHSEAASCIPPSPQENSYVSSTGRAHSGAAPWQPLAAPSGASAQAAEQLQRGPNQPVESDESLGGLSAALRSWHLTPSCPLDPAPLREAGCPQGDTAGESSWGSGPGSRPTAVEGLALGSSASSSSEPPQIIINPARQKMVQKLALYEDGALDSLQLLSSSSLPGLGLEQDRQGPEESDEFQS
Sequence of Myosin light chain kinase 2, skeletal/cardiac muscle (Homo sapiens) (Q9H1R3 whole entry): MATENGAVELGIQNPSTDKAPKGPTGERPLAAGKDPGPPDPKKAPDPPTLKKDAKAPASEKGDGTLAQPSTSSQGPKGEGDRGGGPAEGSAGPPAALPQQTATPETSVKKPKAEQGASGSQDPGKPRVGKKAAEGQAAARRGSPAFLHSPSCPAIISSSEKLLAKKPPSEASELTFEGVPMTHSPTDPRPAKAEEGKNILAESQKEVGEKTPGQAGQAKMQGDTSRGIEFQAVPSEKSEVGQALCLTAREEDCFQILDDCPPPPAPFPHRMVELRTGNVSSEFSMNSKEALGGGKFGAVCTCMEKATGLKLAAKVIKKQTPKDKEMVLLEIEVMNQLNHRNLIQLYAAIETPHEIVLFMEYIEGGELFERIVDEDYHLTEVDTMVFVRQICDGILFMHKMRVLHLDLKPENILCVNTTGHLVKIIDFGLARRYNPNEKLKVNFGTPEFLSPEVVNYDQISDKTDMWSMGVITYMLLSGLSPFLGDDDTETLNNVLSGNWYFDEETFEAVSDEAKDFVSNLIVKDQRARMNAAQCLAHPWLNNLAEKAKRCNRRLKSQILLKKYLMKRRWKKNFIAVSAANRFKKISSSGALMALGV
Sequence of Calcium/calmodulin-dependent protein kinase type II subunit gamma (Homo sapiens) (Q13555 whole entry): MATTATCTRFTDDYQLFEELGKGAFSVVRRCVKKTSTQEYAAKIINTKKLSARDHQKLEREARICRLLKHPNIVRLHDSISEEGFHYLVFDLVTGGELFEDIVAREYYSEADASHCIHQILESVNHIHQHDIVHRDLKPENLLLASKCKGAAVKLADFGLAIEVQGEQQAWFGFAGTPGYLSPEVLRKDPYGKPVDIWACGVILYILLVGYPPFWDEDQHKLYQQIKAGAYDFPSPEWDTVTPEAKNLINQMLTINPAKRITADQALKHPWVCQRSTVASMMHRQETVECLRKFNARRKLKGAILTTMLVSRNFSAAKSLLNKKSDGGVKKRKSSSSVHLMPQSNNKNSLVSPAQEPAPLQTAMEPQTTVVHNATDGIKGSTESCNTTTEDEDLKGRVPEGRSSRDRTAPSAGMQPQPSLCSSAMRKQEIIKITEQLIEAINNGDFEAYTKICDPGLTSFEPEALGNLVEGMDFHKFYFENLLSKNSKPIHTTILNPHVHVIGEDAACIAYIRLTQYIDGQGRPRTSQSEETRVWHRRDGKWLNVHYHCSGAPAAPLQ

`COc1ccc(N2C(=O)COc3ccc(-c4cnc(OC)c(NS(=O)(=O)c5ccc(F)cc5)c4)cc32)cc1` gave an inhibition [1] of 10.1%, an inhibition [2] of 5.64% and an inhibition [3] of 10.8%. The inhibition [4] was 4.25%, the inhibition [5] was -5.22% and the inhibition [6] was 9.57%. For the same compound, the inhibition [7] was -3.64%, the inhibition [8] was 2.43% and the inhibition [9] was 11.5%. For the same compound, the inhibition [10] was 19.4%, the inhibition [11] was -0.32% and the inhibition (Homo sapiens [12]) was 5.47%. The inhibition [13] was 2.55%, the inhibition [14] was 19.4% and the inhibition [15] was -6.74%. The inhibition [16] was 10.2%, the inhibition [17] was 4.85% and the inhibition [18] was 5.02%. It also gave an inhibition [19] of 20.8%, an IC50 (HCT-116) of 13.4 µM and an inhibition [20] of -9.8%. The inhibition [21] was 10.7%, the inhibition [22] was 12.3% and the inhibition [23] was 0.61%. For the same compound, the inhibition [24] was 9.62%, the inhibition [25] was 3.77% and the inhibition (Homo sapiens [26]) was -4.96%. The inhibition [27] was 9.02%, the inhibition [28] was 5.12% and the inhibition (HeLa) was “Dose-dependent effect”. For the same compound, the IC50 (MCF7) was 8.26 µM and the inhibition [29] was 5.57%.

From ChEMBL document CHEMBL4364276, “Discovery of 4-phenyl-2H-benzo[b][1,4]oxazin-3(4H)-one derivatives as potent and orally active PI3K/mTOR dual inhibitors” (Eur J Med Chem, 2019)
